Experimental data from patent US20240000831A1, “MOLECULAR BASIS OF FATTY LIVER INHIBITION BY SODIUM BORATES” (YEDITEPE UNIVERSITESI, priority 2020, published 2024).
Like-named read-outs stand apart in the source and are kept apart here.

Assays:
[1] = Toxicology studies in rats adapted to humans; format: in vivo; conditions: daily dose of 500 mg, rat toxicology studies adapted to humans
Experimental: Today, there is no specific drug for direct treatment of fatty liver. […] It is known that boron homeostasis taken into mammalian systems is excreted via urine within 72 hours. Boron also regulates calcium, potassium and magnesium metabolisms in the body.

[2] = system: non-alcoholic fatty liver pathway genes in healthy human cells; experiment: Microarray experiment: gene expression related to fatty liver; format: cell-based; conditions: healthy human cells treated for 3 days; ADIPOR2, PRKAG2, IRS1, PIK3R1, NFKB1, MAP3K11, BID, CYCS, BAX, CASP3, TGFB1
Experimental: All changes in the level of gene expression related to fatty liver in healthy human cells were determined by this method upon being treated with sodium borates for 3 days. It was determined how these genes affect the pathway related to fatty liver. As a result of the microarray experiment, it is understood that the expression level of many genes in the non-alcoholic fatty liver pathway decreased by 2 times and more, and fatty liver was prevented as the pathway lost its function substantially. Genes, whose expression was reduced, were ADIPOR2, PRKAG2, IRS1, PIK3R1, NFKB1, MAP3K11, BID, CYCS, BAX, CASP3 and TGFB1 (FIG. 1). In our in vivo study, it has been proven on animals that fatty liver was inhibited as a result of the failure of this pathway.

[3] = system: pathological disorders in the liver caused by high-fat diet in balb/c mice; experiment: Histological evaluation of liver tissue (hematoxylin-eosin staining scores); format: in vivo; conditions: for hematoxylin-eosin staining technique score (Mean ± SD): 10 weeks, n = 6, YYD alone 12.6 ± 1.54, control 1.60 ± 1.14
Experimental: (§1) 8-weeks-old female 24 balb/c mice were used for the in vivo experiment. The adaptation process was completed in cages in a temperature-controlled room with a 12-hour light/dark cycle. Then, the mice were divided into four different dietary groups (n=6 for each group): normal diet (2.70 kcal/g), high-fat diet (YYD) (4.00 kcal/g), YYD supplemented with 0.5 mg/g SB, and YYD supplemented with 1.5 mg/g SB. At the end of 10 weeks, mice were sacrificed and weights of their livers were measured. At the end of 10 weeks, the livers of the mice were removed and weighed, and it was observed that fatty liver caused by high-fat diet was inhibited by the use of 1.5 mg/g SB as a supplement (FIG. 2A).
Liver tissues of mice were prepared for histological evaluation. These tissue samples were immersed in 10% neutral formaldehyde prepared with 0.1 M phosphate buffer (pH 7.4) for fixation at 4° C. Subsequently, the samples were rinsed in tap water for 12 hours, then dehydrated in an alcohol batch and embedded in paraffin. From samples embedded in paraffin, 5 micron thick samples were obtained using a rotary microtome (Leica RM 2245 model; Leica Instruments, Germany). All tissue sections were taken onto poly-L-lysine coated slides. All these samples were stained with hematoxylin eosin staining technique and imaged under a light microscope (Leica DM6000B). […] This method has been used to evaluate the situation of pathological deteriorations caused by high fat diet when different sodium boron administrations are applied and when not applied.

[4] = system: fatty liver caused by high-fat diet in balb/c mice; experiment: In vivo experiment: liver weight of high-fat diet mice; conditions: YYD supplemented with 1.5 mg/g SB, 10 weeks, female balb/c mice
Experimental: as §1

[5] = cited from earlier work

Row | Compound | side effects [1] | decrease in expression levels of genes in the non-alcoholic fatty liver pathway [2] | hematoxylin-eosin staining technique score (Mean ± SD) ([3]; YYD + 0.5 mg SB/g VA) | hematoxylin-eosin staining technique score (Mean ± SD) ([3]; YYD + 1.5 mg SB/g VA) | hematoxylin-eosin staining technique score (Mean ± SD) ([3]; YYD + 1.5 mg SB/g VA, listed as sodium borate) | pathological disorders caused by high-fat diet (histological evaluation) ([3]; both doses (0.5 and 1.5 mg/g), liver tissue) | fatty liver caused by high-fat diet (liver weight) [4] | time to excretion via urine ([5]; mammalian systems) | side effects ([5]; up to 18 mg of boron daily in adults)
1 | sodium borate [SB] | no side effects | ≥ 2 times | 8.6±1.14 | 3.6 ± 0.89 | 3.6±0.89 | decreased the pathological disorders | inhibited | – | –
2 | [B] [boron] | – | – | – | – | – | – | – | ≤ 72 h | does not cause any side effects
